Patent US8039468B2, “Method of inhibition of respiratory depression using positive allosteric AMPA receptor modulators” (The Governors of the University of Alberta, priority 2006, dated 2011)
“Also recorded” adds a separate entry of the source. Marks after values point to notes of the source that are not given here.

Experiments:
[1] = test system: medullary slice preparations (preBötC, XII motoneuron nucleus); experiment: Medullary slice preparation, respiratory rhythm (XII nerve root discharge); design: species or system rat; conditions: for DAMGO-induced suppression of inspiratory discharge amplitude, focal injection into XII motorneuron nucleus / DAMGO-induced suppression of respiratory rhythm, focal injection into preBötC: newborn (P2) slice, CX614 200 μM, Compound A 1 mM, DAMGO in bath
Experimental: The medullary slice preparation is a derivative of the brainstem-spinal cord preparation. See, Smith J. C., et al. (1991). It contains the minimum component of neuronal populations within the ventrolateral medulla necessary for generating a respiratory rhythm, the preBötC. The medullary slice also contains a significant portion of the rostral ventral respiratory group, hypoglossal nucleus and XII cranial nerve rootlets from which inspiratory motor discharge is recorded.
Brainstem-spinal cords isolated from newborn rats were pinned down, ventral surface upward, on a paraffin-coated block. See, Funk, G. D., et al. (1993); Smith, J. C., et al. (1991). The block was mounted in the vise of a vibratome bath (Leica, VT1000S). […] A single transverse slice containing the preBötC and more caudal reticular formation regions was then cut (500-600 μm thick), transferred to a recording chamber and pinned down onto a Sylgard elastomer. The medullary slice was continuously perfused with a bathing solution identical to that used for the brainstem-spinal cord preparation with the exception that in some cases the K^+ concentration was increased to 9 mM which facilitates long-term generation of stable rhythm (>5 hours) by these preparations. See, Funk, G. D., et al. (1993); Smith, J. C., et al. (1991). Recordings were made from the hypoglossal (XII) cranial nerve roots, cervical (C4) ventral roots and neuronal population discharge within the ventrolateral medulla with suction electrodes placed over the nerve roots or on the surface of the rhythmic slice preparations.

[2] = test system: inspiratory neuron within the preBötzinger complex; experiment: Whole-cell recording from inspiratory neuron within the preBötzinger complex, medullary slice; format: cell-based, rat
XII motorneuron = format: cell-based, rat; conditions: compound in bathing medium, TTX present
[3] = test system: brainstem-spinal cord preparations; experiment: Brainstem-spinal cord preparation, rhythmic respiratory discharge (C4 ventral root); design: species or system rat
Excerpt: The fetal and neonatal brainstem-spinal cord preparations have been well-characterized and shown to generate complex, coordinated patterns of respiratory-related activity. See, Smith J. C. et al. (1990) and Greer, J. J. et al. (1992). Recordings from cervical ventral and hypoglossal cranial roots provide information regarding the pharmacology of respiratory rhythm generating networks and the pathways transmitting that respiratory drive to key output components of the respiratory motor system, without the confounding influence of peripheral chemoreceptors and supramedullary structures.
Brainstem-spinal cord preparations were carried out as follows: Sprague-Dawley (SD) rat fetuses were delivered from timed-pregnant dams anesthetized with halothane (2% delivered in 95% O2 and 5% CO2) and maintained at 37° C. by radiant heat, following procedures approved by the Animal Welfare Committee at the University of Alberta. The timing of pregnancies was determined by vaginal lavage of the dam. Newborn rat pups were anesthetized with metofane. Newborn pups and embryos were then decerebrated and the brainstem-spinal cord was dissected following procedures similar to those established for perinatal rats. See, Smith, J. C., et al. (1990) J. Neurophysiol. 64:1149-1169; Greer, J. J., et al. (1992) J. Neurophysiol. 67:996-999. The neuraxis was continuously perfused at 27±1° C. (perfusion rate 5 ml/minute, chamber volume of 1.5 ml) with modified Kreb's solution that contained (mM): 128 NaCl, 3.0 KCl, 1.5 CaCl2, 1.0 MgSO4, 24 NaHCO3, 0.5 NaH2PO4, and 30 D-glucose equilibrated with 95% O2-5% CO2 (pH=7.4).

rats = experiment: Thermal nociception, hind paw withdrawal test; format: in vivo, rat
[4] = test system: perfused heart in situ preparations; experiment: Perfused heart in situ preparation, phrenic nerve discharge; design: species or system rat; conditions: fentanyl 4 nM, then CX546 50 μM in perfusate
[5] = listed as 4-(BENZOFURAZAN-5-YLCARBONYL)MORPHOLINE

## O=C(c1ccc2nonc2c1)N1CCOCC1 [Compound A, 4-(benzofurazan-5-ylcarbonyl)morpholine]
[1]
  DAMGO-induced suppression of inspiratory discharge amplitude, focal injection into XII motorneuron nucleus: alleviates some of the amplitude depression
  DAMGO-induced suppression of respiratory rhythm, focal injection into preBötC: alleviates the frequency depression
[1]; [5]
  DAMGO-induced suppression of inspiratory discharge amplitude, focal injection into XII motorneuron nucleus: alleviates DAMGO induced suppression of respiratory rhythm
  DAMGO-induced suppression of respiratory rhythm, focal injection into preBötC: alleviates DAMGO induced suppression of respiratory rhythm
[2]; voltage clamp, TTX present, bath-applied compound
  current amplitude in response to glutamate injections: increases
XII motorneuron
  amplitude and duration of glutamate-induced inward currents: not significantly altered
Sprague-Dawley rat; rat, in vivo
  persistence of enhancement of respiratory rhythm: at least 1 hour

## C[C@@H](NC(=O)[C@@H](N)Cc1ccc(O)cc1)C(=O)NCC(=O)N(C)[C@@H](Cc1ccccc1)C(=O)NCCO [DAMGO, Tyr-D-Ala-Gly-N-methyl-Phe-Gly-ol-enkephalin, reference compound]
[1]; P1 slice in 9 mM [K+]o, DAMGO 800 nM bath-applied
  respiratory frequency and amplitude: markedly suppressed
[3]; P1 preparation, DAMGO 800 nM bath-applied
  respiratory frequency and amplitude: markedly suppressed

## O=C(c1ccc2c(c1)OCCO2)N1CCCCC1 [CX546, 1-(1,4-benzodioxan-6-ylcarbonyl)piperidine]
rats; Adult (2-3 months), drug alone i.p. (CX546 16 mg/kg pre-administration of fentanyl; fentanyl 130 μg/kg)
  Latency (s), hind paw withdrawal: 5.3 ± 2.1 s
rats; Adult (2-3 months), post-administration of fentanyl 130 μg/kg, CX546 16 mg/kg or naloxone 1 mg/kg i.p.
  Latency (s), hind paw withdrawal: >20* s
rats; CX546 16 mg/kg on its own
  sensitivity of thermal nociception tests in the control condition: did not change the sensitivity
rats; Newborn (P1-P2), drug alone i.p. (CX546 16 mg/kg pre-administration of fentanyl; fentanyl 60 μg/kg)
  Latency (s), hind paw withdrawal: 4.3 ± 3.2 s
rats; Newborn (P1-P2), post-administration of fentanyl 60 μg/kg, CX546 16 mg/kg or naloxone 1 mg/kg i.p.
  Latency (s), hind paw withdrawal: >20* s
rats; newborn and adult rats, CX546 16 mg/kg or naloxone 1 mg/kg i.p.
  fentanyl-induced analgesia after subsequent administration of the drug: persisted
[1]; CX546 400 μM bath-applied after rhythm ceased in 3 mM [K+]
  time to restoration of frequency and amplitude to 3 mM [K+] bath levels: ≤ 2 min
[1]; CX546 400 μM bath-applied after rhythm ceased in 3 mM [K+], P2 slice
  effect on rhythmic respiratory activity after cessation: rapid and potent stimulation of respiratory networks; also recorded: restored rhythmic activity of XII motoneurons
[1]; CX546 on its own, 9 mM [K+]o
  control values of respiratory frequency or amplitude of motor nerve discharge: did not significantly alter
[1]; P1-P2 slice, 9 mM [K+]o, DAMGO 800 nM, then CX546 200 μM bath-applied
  DAMGO-induced depression of respiratory frequency and amplitude: alleviated; also recorded: partially reversed
[1]; P2 slice, 3 mM [K+]o, CX546 in bath
  persistence of respiratory rhythm in presence of compound: > 3 h
[2]; current clamp, low extracellular K+
  frequency of the rhythm and inspiratory drive potential: increased
[2]; voltage clamp, same neuron
  amplitude of inward inspiratory drive current: marked increase
[3]; E20 preparation, CX546 50-100 μM in bathing medium
  frequency of rhythmic respiratory discharge: markedly enhanced
[3]; P1-P2, DAMGO 800 nM, then CX546 200 μM bath-applied
  DAMGO-induced depression of respiratory frequency and amplitude: alleviated; also recorded: partially reversed
[3]; P3 preparations, bath-applied CX546
  baseline respiratory frequency: no effect on the baseline frequency
[3]; perinatal preparations E18-P0, bath-applied CX546
  respiratory frequency compared to control: significant increase in frequency
[4]
  fentanyl-induced depression of respiratory frequency and phrenic burst amplitude: counters
Sprague-Dawley rat; CX546 16 mg/kg i.p. on its own, newborn P0-P2 and adult rats
  baseline frequency and amplitude of breathing: not significantly altered
Sprague-Dawley rat; rat, in vivo, ip, 16 mg/kg
  behaviour or arousal state (spontaneous movement, agitation, sedation): without any obvious effect
